Data taken from publication PMC12704298, “Divergent acetyl-CoA binding modes mediate allosteric inhibition of bacterial hybrid-type malic enzymes” (The Journal of Biological Chemistry, 2025).

Columns and labels:
EcMaeB [1] = target: T1, EcMaeB (Escherichia coli, UniProt P76558); assay: Enzyme kinetic parameters (Michaelis-Menten, substrate inhibition, empirical Hill plots); type: biochemical
T1 construct: His-tag (C); made in house; host or cells: E. coli BL21(DE3)
T1 sequence (P76558 1-759): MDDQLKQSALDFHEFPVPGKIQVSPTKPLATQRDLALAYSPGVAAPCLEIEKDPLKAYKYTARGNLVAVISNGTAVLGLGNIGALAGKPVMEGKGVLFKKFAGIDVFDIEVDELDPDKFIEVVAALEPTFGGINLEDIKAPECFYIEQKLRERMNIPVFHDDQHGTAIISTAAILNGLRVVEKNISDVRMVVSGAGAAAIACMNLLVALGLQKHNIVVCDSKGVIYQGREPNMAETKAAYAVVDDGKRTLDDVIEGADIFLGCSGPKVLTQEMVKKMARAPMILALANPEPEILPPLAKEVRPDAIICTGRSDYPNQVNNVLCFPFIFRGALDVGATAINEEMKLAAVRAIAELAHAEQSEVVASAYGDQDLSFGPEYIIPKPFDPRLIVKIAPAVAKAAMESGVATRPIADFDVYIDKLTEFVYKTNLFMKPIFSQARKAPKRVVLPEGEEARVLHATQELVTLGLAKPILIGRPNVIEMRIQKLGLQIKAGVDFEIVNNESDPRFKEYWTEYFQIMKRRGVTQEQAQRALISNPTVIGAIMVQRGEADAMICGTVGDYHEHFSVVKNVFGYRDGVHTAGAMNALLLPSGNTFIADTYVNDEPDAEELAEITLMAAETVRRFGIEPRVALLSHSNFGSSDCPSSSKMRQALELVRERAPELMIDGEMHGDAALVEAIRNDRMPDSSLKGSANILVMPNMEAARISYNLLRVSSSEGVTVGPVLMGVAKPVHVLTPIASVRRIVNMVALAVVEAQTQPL
Protocol: (§1) Spectrophotometric assays were used to monitor the oxidative decarboxylation of L-malate to pyruvate using a SpectraMax M2, UV-Visible spectrophotometer (Molecular Devices) operated by SoftMax Pro Software with kinetic mode. All assays recorded the Δabsorbance at 340 nm (NADPH) at 30 °C. Assays were initiated by the addition of enzyme to the otherwise complete reaction mixture. […] Acetyl-CoA was tested at 5 μM.
(§2) For this substrate inhibition model, x should be fixed. […] The plots shown in Fig. S1F were fitted to the empirical Hill equation: v0=Vmax·[malate]^h/(K0.5h+[malate]^h) where K0.5 indicates the substrate concentration for half-saturation. When h is equal to 1, K0.5 matches Michaelis constant Km.

EcMaeB [2] = target: T1, EcMaeB; set-up: method as in PMID 17557829; settings: previous study; cited from earlier work
DME = system: DME; set-up: method as in PMID 10407149; settings: cited from earlier work
BbMaeB = target: T2, BbMaeB (Bdellovibrio bacteriovorus, UniProt A0A1Z3N8R4); assay: Enzyme kinetic parameters (Michaelis-Menten, substrate inhibition, empirical Hill plots); type: biochemical, Bdellovibrio bacteriovorus strain SSB218315
T2 sequence (A0A1Z3N8R4 1-776): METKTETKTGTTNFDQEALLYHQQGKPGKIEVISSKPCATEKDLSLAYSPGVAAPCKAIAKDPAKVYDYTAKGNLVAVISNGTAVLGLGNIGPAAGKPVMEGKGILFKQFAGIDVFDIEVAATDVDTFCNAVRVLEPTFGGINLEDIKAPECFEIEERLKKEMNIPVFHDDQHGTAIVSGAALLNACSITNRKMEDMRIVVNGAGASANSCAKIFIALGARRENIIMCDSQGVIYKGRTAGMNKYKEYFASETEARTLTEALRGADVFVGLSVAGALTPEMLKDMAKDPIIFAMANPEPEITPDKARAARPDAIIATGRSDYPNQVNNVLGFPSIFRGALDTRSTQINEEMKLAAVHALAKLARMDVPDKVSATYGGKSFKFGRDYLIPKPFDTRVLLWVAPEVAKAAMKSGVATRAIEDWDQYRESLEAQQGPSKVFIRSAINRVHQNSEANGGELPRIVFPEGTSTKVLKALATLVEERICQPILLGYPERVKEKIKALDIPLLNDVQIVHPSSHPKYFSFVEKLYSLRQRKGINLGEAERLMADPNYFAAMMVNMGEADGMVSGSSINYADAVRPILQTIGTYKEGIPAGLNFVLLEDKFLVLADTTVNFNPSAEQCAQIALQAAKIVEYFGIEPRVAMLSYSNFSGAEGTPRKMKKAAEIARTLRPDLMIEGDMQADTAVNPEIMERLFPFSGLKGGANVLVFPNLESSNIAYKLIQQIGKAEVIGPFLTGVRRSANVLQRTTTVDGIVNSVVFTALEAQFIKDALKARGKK
Protocol: as §1, §2

[3] = target: the molecule itself; assay: crystal structure; EcMaeB without cofactors and acetyl-CoA; 20 mg/ml protein, 0.2 M potassium chloride pH 7.0, 20% v/v PEG 3350, 20 °C; homohexamer
[4] = substrate: O=C(O)C[C@H](O)C(=O)O; assay: Enzyme kinetic parameters (Michaelis-Menten, substrate inhibition, empirical Hill plots); type: biochemical, Escherichia coli; settings: other: EcMaeB; substrate inhibition plot, NADP+ fixed 0.5 mM, without acetyl-CoA; pH 7.5; 30.0 °C
[5] = substrate: O=C(O)C[C@H](O)C(=O)O; assay: as above; type: biochemical, Bdellovibrio bacteriovorus strain SSB218315; settings: other: BbMaeB; substrate inhibition plot, NADP+ fixed 0.5 mM, without acetyl-CoA; pH 7.5; 30.0 °C

In the case of `[Mg+2]` [Mg^2+], the “effect of different Mg2+ concentrations on kinetic parameters” value (EcMaeB [1]) is given as “no significant changes in kinetic parameters” and the “concentration at which EcMaeB activity is inhibited” value (EcMaeB [2]) is given as “above 4 mM”.

In the case of `CCCC(=O)SCCNC(=O)CCNC(=O)[C@H](O)C(C)(C)COP(=O)(O)OP(=O)(O)OC[C@H]1O[C@@H](n2cnc3c(N)ncnc32)[C@H](O)[C@@H]1OP(=O)(O)O` [butyryl-CoA], the “effect on DME activity” value (DME) is given as “inhibited”.

With `O=C(O)C[C@H](O)C(=O)O` [malate, L-malate] the “K0.5 from the empirical Hill equation” value (EcMaeB [1]; EcMaeB, in the presence of acetyl-CoA, 0.5 mM NADP+, 300 nM enzyme) was 18.1 ± 3.20 mM and the “K0.5 from the empirical Hill equation” value (BbMaeB; in the presence of acetyl-CoA, 0.5 mM NADP+, 300 nM enzyme) was 7.44 ± 1.21 mM.

In the case of `CCC(=O)SCCNC(=O)CCNC(=O)[C@H](O)C(C)(C)COP(=O)(O)OP(=O)(O)OC[C@H]1O[C@@H](n2cnc3c(N)ncnc32)[C@H](O)[C@@H]1OP(=O)(O)O` [propionyl-CoA], the “effect on DME activity” value (DME) is listed as “inhibited”.

For NADP^+, the “change of Km for NADP+ with Mn2+ instead of Mg2+” value (EcMaeB [1]; EcMaeB, 5 mM MnCl2) was “approximately doubled” and the “change of Km for NADP+ with Mn2+ instead of Mg2+” value (BbMaeB; 5 mM MnCl2) was “approximately doubled”.

B1: malic enzyme B (MaeB) from Escherichia coli (enzyme, UniProt P76558 1-759, looked up)
chain: T1 sequence (P76558 1-759)
notes: MaeB of E. coli, gene amplified from genomic DNA of strain SHuffle T7; Cloned in pET-28a(+); Homohexamer in the crystal and in cryo-EM; also called EcMaeB; EcMaeBapo; source: E. coli BL21(DE3), purified (HisTrap TALON, size-exclusion chromatography)
For B1, the “stoichiometry N” value [3] was 6 and the Km [4] was 20.7 ± 8.83 mM.

B2: BbMaeB (Bdellovibrio bacteriovorus) (protein)
chain: T2 sequence (A0A1Z3N8R4 1-776)
B2 showed a Km [5] of 6.22 ± 1.55 mM.
